Test results as given in article PMC11093223, “Cargo selective vesicle tethering: The structural basis for binding of specific cargo proteins by the Golgi tether component TBC1D23” (Science Advances, 2024).
Entries after “also recorded” stand apart in the source; their conditions may differ. Like-named read-outs stand apart in the source and are kept apart here. Residues, ends and D or L forms follow the SMILES beside them.

Legend:
[1] = molecular target: T1, TBC1D23 C-terminal domain (Mus musculus, UniProt Q8K0F1); test: ITC of cargo and mutant syntaxin-16 peptides binding to wild-type TBC1D23 C-terminal domain; details: for Kd / KD (μM): 20°C; for KD (μM): peptide (0.8-5 mM) titrated into 100 μM domain, 100 mM NaCl, 100 mM tris pH 7.4, 1 mM TCEP, mean of three independent runs
T1 construct: TBC1D23 C-terminal domains were gel-filtered into buffer; GST (N, cleaved yes); made in house; host or cells: E. coli BL21 pLysS
T1 sequence (Q8K0F1 559-684 limits assumed): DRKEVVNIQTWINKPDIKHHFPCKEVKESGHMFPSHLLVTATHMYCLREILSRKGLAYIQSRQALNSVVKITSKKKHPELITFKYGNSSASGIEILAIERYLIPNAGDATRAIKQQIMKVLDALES
Experimental: (§1) Experiments were performed using a Nano ITC machine from TA Instruments. TBC1D23 C-terminal domains were gel-filtered into buffer composed of 100 mM NaCl, 100 mM tris (pH 7.4), and 1 mM tris(2-carboxyethyl)phosphine (TCEP). Peptides were dissolved in the same batch of buffer. Both the wild-type and mutant C-terminal domains were concentrated to 100 μM (1.4 mg/ml) with peptide concentration varying between 0.8 and 5 mM (depending on the peptide). Peptides were titrated into TBC1D23 C-terminal domains with 20 injections of 2.4 μl each separated by 300-s intervals. Experiments were conducted at 20°C. […] Data were exported to GraphPad Prism for figure generation.
(§2) Recombinant proteins were expressed in BL21 plyS E. coli grown in shaking 2× TY medium at 37°C. Expression was induced with 0.2 mM IPTG, and cells were grown overnight at 22°C. Cells were resuspended in buffer A [250 mM NaCl, 20 mM tris (pH 7.4), and 1 mM DTT] supplemented with 4-benzenesulfonyl fluoride hydrochloride, MnCl2 and deoxyribonuclease I. Cell pellets were lysed using a cell disruptor (Constant Systems) before clarification by ultracentrifugation (104,350 relative centrifugal force) for 45 min. The supernatant was batch bound to glutathione-Sepharose resin (Cytiva) in buffer A before washing with 400 ml of buffer A and overnight cleavage of the GST-tag with thrombin at room temperature. The resultant flow through was concentrated for gel filtration Superdex 200 column (GE Healthcare) into either buffer A for crystallization or into ITC buffer [100 mM NaCl, 100 mM tris (pH 7.4), and 1 mM TCEP].

[2] = molecular target: T2, TBC1D23 C-terminal domain K672A (Mus musculus, UniProt Q8K0F1, K672A); test: ITC of syntaxin-16 peptide binding to TBC1D23 C-terminal domain mutant K672A; details: mean of three runs, read-out: Mean affinity
T2 construct: Both the wild-type and mutant C-terminal domains were concentrated to 100 μM; GST (N, cleaved yes); made in house; host or cells: E. coli BL21 pLysS
T2 sequence (Q8K0F1 559-684 K672A limits assumed): as the sequence (Q8K0F1 559-684 limits assumed) above, with K114A counted along it
Experimental: as §1
as §2, with “The resultant flow through was concentrated for gel filtration Superdex 200 column (GE Healthcare) into either buffer A for crystallization or into ITC buffer [100 mM NaCl, 100 mM tris (pH 7.4), and 1 mM TCEP].” left out

[3] = molecular target: T3, TBC1D23 C-terminal domain V626D (Mus musculus, UniProt Q8K0F1, V626D); test: ITC of syntaxin-16 peptide binding to TBC1D23 C-terminal domain mutant V626D
T3 construct: Both the wild-type and mutant C-terminal domains were concentrated to 100 μM; GST (N, cleaved yes); made in house; host or cells: E. coli BL21 pLysS
T3 sequence (Q8K0F1 559-684 V626D limits assumed): as the sequence (Q8K0F1 559-684 limits assumed) above, with V68D counted along it
Experimental: as §1
as §2, with “The resultant flow through was concentrated for gel filtration Superdex 200 column (GE Healthcare) into either buffer A for crystallization or into ITC buffer [100 mM NaCl, 100 mM tris (pH 7.4), and 1 mM TCEP].” left out

[4] = molecular target: T4, TBC1D23 C-terminal domain I675W (Mus musculus, UniProt Q8K0F1, I675W); test: ITC of syntaxin-16 peptide binding to TBC1D23 C-terminal domain mutant I675W
T4 construct: GST (N, cleaved yes); made in house; host or cells: E. coli BL21 pLysS
T4 sequence (Q8K0F1 559-684 I675W limits assumed): as the sequence (Q8K0F1 559-684 limits assumed) above, with I117W counted along it
Experimental: as §1
as §2, with “The resultant flow through was concentrated for gel filtration Superdex 200 column (GE Healthcare) into either buffer A for crystallization or into ITC buffer [100 mM NaCl, 100 mM tris (pH 7.4), and 1 mM TCEP].” left out

[5] = pH 7.4, bound given for peptides without measurable binding, read-out: Affinity
[6] = pH 7.4, mean of three runs, read-out: Mean affinity
[7] = bound, no measurable binding, read-out: Affinity

Kd [1, 5] | KD (μM) [1] | Kd [1, 6] | Structure (SMILES) | other results
> 200 µM | no binding |  | CSCC[C@H](NC(=O)[C@H](CC(C)C)NC(=O)[C@H](Cc1c[nH]c2ccccc12)NC(=O)[C@H](CCC(=O)O)NC(=O)[C@@H](NC(=O)[C@H](CCC(=O)O)NC(=O)[C@H](CC(N)=O)NC(=O)[C@H](CCC(=O)O)NC(=O)[C@H](CC(=O)O)NC(=O)[C@@H](NC(=O)[C@H](CCC(=O)O)NC(=O)[C@H](CCC(=O)O)NC(=O)[C@@H](N)CCC(=O)O)[C@@H](C)O)[C@@H](C)O)C(=O)O [CIMPR_WLM] (H-EEETDENETEWLM-OH; N-terminus and C-terminus assumed) | 
 |  | 10.6 µM | CC(C)C[C@H](NC(=O)[C@@H](NC(=O)[C@H](CCC(=O)O)NC(=O)[C@H](CCC(=O)O)NC(=O)[C@@H](N)CCC(=O)O)[C@@H](C)O)C(=O)N[C@@H](Cc1ccc(O)cc1)C(=O)N[C@@H](CO)C(=O)N[C@@H](CO)C(=O)N[C@@H](CCCCN)C(=O)N[C@@H](Cc1c[nH]cn1)C(=O)O [CPD_TLY] (H-EEETLYSSKH-OH) | 
 |  | 15.7 µM | CC(C)[C@H](NC(=O)[C@@H](NC(=O)[C@H](CCC(=O)O)NC(=O)[C@H](CCC(=O)O)NC(=O)[C@H](CC(=O)O)NC(=O)[C@H](CO)NC(=O)[C@@H](N)CC(=O)O)[C@@H](C)O)C(=O)N[C@@H](Cc1ccccc1)C(=O)N[C@@H](CCC(=O)O)C(=O)N[C@@H](CO)C(=O)O [FAM174C_TVF] (H-DSDEETVFES-OH) | 
 |  | 35.2 µM | CC[C@H](C)[C@H](NC(=O)[C@@H](NC(=O)[C@H](CC(=O)O)NC(=O)[C@H](CCC(N)=O)NC(=O)[C@H](CC(=O)O)NC(=O)[C@H](CO)NC(=O)[C@H](CC(=O)O)NC(=O)[C@H](Cc1ccccc1)NC(=O)[C@H](CCC(=O)O)NC(=O)[C@H](CO)NC(=O)[C@@H](N)CCC(=O)O)[C@@H](C)O)C(=O)N[C@@H](Cc1ccccc1)C(=O)O [KIAA0319_TIF] (H-ESEFDSDQDTIF-OH) | 
 |  | 2.91 µM | CC(C)[C@H](NC(=O)[C@@H](NC(=O)[C@H](Cc1ccccc1)NC(=O)[C@H](CC(=O)O)NC(=O)CNC(=O)[C@H](CC(=O)O)NC(=O)[C@H](CCC(=O)O)NC(=O)[C@H](CC(N)=O)NC(=O)[C@H](CCC(=O)O)NC(=O)[C@H](CCC(=O)O)NC(=O)[C@@H](N)CC(=O)O)[C@@H](C)O)C(=O)N[C@@H](Cc1ccc(O)cc1)C(=O)N[C@@H](CCC(=O)O)C(=O)N[C@@H](CS)C(=O)O [NPDC1_TVY] (H-DEENEDGDFTVYEC-OH) | 
> 200 µM | no binding |  | CC(C)[C@H](NC(=O)[C@@H](NC(=O)[C@H](CO)NC(=O)[C@H](Cc1ccc(O)cc1)NC(=O)[C@@H](NC(=O)[C@@H](NC(=O)[C@H](CC(N)=O)NC(=O)[C@H](C)NC(=O)[C@@H]1CCCN1C(=O)[C@H](CC(=O)O)NC(=O)[C@@H](N)CCC(=O)O)[C@@H](C)O)C(C)C)[C@@H](C)O)C(=O)N[C@@H](CCC(=O)O)C(=O)O [SLAMF7_TVY] (H-EDPANTVYSTVE-OH; N-terminus and C-terminus assumed) | 
> 200 µM |  |  | CC(C)C[C@H](NC(=O)[C@@H](NC(=O)[C@H](CC(N)=O)NC(=O)[C@H](C)NC(=O)[C@H](C)N)[C@@H](C)O)C(=O)N[C@@H](Cc1ccc(O)cc1)C(=O)N[C@@H](Cc1c[nH]cn1)C(=O)N[C@@H](CCCNC(=N)N)C(=O)NCC(=O)N[C@@H](Cc1ccccc1)C(=O)N[C@H](C(=O)N[C@@H](CCC(=O)O)C(=O)N[C@@H](CC(=O)O)C(=O)O)[C@@H](C)O [STX16_DDAA] (H-AANTLYHRGFTED-OH; N-terminus and C-terminus assumed) | 
> 200 µM |  |  | C[C@H](NC(=O)[C@@H](NC(=O)[C@H](CC(N)=O)NC(=O)[C@H](CC(=O)O)NC(=O)[C@@H](N)CC(=O)O)[C@@H](C)O)C(=O)N[C@@H](Cc1ccc(O)cc1)C(=O)N[C@@H](Cc1c[nH]cn1)C(=O)N[C@@H](CCCNC(=N)N)C(=O)NCC(=O)N[C@@H](Cc1ccccc1)C(=O)N[C@H](C(=O)N[C@@H](CCC(=O)O)C(=O)N[C@@H](CC(=O)O)C(=O)O)[C@@H](C)O [STX16_LtoA] (H-DDNTAYHRGFTED-OH; N-terminus and C-terminus assumed) | reduction of binding relative to wild-type syntaxin-16 peptide [1]: > 100 fold
 |  | 151 µM | C[C@@H](O)[C@H](NC(=O)[C@H](Cc1ccccc1)NC(=O)CNC(=O)[C@H](CCCNC(=N)N)NC(=O)[C@H](Cc1c[nH]cn1)NC(=O)[C@H](Cc1ccc(O)cc1)NC(=O)[C@H](Cc1ccccc1)NC(=O)[C@@H](NC(=O)[C@H](CC(N)=O)NC(=O)[C@H](CC(=O)O)NC(=O)[C@@H](N)CC(=O)O)[C@@H](C)O)C(=O)N[C@@H](CCC(=O)O)C(=O)N[C@@H](CC(=O)O)C(=O)O [STX16_LtoF] (H-DDNTFYHRGFTED-OH) | 
> 200 µM | No binding |  | C[C@@H](O)[C@H](NC(=O)[C@H](Cc1ccccc1)NC(=O)CNC(=O)[C@H](CCCNC(=N)N)NC(=O)[C@H](Cc1c[nH]cn1)NC(=O)[C@H](Cc1ccc(O)cc1)NC(=O)[C@H](CO)NC(=O)[C@@H](NC(=O)[C@H](CC(N)=O)NC(=O)[C@H](CC(=O)O)NC(=O)[C@@H](N)CC(=O)O)[C@@H](C)O)C(=O)N[C@@H](CCC(=O)O)C(=O)N[C@@H](CC(=O)O)C(=O)O [STX16_LtoS] (H-DDNTSYHRGFTED-OH; N-terminus and C-terminus assumed) | 
 |  |  | CC(C)C[C@H](NC(=O)[C@@H](NC(=O)[C@H](CC(N)=O)NC(=O)[C@H](CC(=O)O)NC(=O)[C@@H](N)CC(=O)O)[C@@H](C)O)C(=O)N[C@@H](Cc1ccc(O)cc1)C(=O)N[C@@H](Cc1c[nH]cn1)C(=O)N[C@@H](CCCNC(=N)N)C(=O)NCC(=O)N[C@@H](Cc1ccccc1)C(=O)N[C@H](C(=O)N[C@@H](CCC(=O)O)C(=O)N[C@@H](CC(=O)O)C(=O)O)[C@@H](C)O [STX16_TLY] (H-DDNTLYHRGFTED-OH) | Kd [2]: 27.6 µM; KD (μM) ([3]; 20°C, pH 7.4, figure and text, listed as syntaxin-16 peptide): abolishes peptide binding; also recorded: No binding; Kd [3, 7]: > 200 µM; KD (μM) ([4]; 20°C, pH 7.4, figure and text): No binding; Kd [4, 7]: > 200 µM
> 200 µM | No binding |  | CC(C)C[C@H](NC(=O)[C@@H](NC(=O)[C@H](CC(N)=O)NC(=O)[C@H](CC(=O)O)NC(=O)[C@@H](N)CC(=O)O)[C@@H](C)O)C(=O)N[C@@H](CO)C(=O)N[C@@H](Cc1c[nH]cn1)C(=O)N[C@@H](CCCNC(=N)N)C(=O)NCC(=O)N[C@@H](Cc1ccccc1)C(=O)N[C@H](C(=O)N[C@@H](CCC(=O)O)C(=O)N[C@@H](CC(=O)O)C(=O)O)[C@@H](C)O [STX16_YtoS] (H-DDNTLSHRGFTED-OH; N-terminus and C-terminus assumed) | 
 |  | 5.64 µM | CC(C)C[C@H](NC(=O)[C@@H](NC(=O)[C@H](CC(N)=O)NC(=O)[C@H](CC(=O)O)NC(=O)[C@@H](N)CC(=O)O)[C@@H](C)O)C(=O)N[C@@H](Cc1c[nH]c2ccccc12)C(=O)N[C@@H](Cc1c[nH]cn1)C(=O)N[C@@H](CCCNC(=N)N)C(=O)NCC(=O)N[C@@H](Cc1ccccc1)C(=O)N[C@H](C(=O)N[C@@H](CCC(=O)O)C(=O)N[C@@H](CC(=O)O)C(=O)O)[C@@H](C)O [STX16_YtoW] (H-DDNTLWHRGFTED-OH) | 

Structure (SMILES) | Kd [1, 5] | KD (μM) [1] | Kd [1, 6] | other results
CC(C)C[C@H](NC(=O)[C@H](C)NC(=O)[C@H](CC(N)=O)NC(=O)[C@H](CC(=O)O)NC(=O)[C@@H](N)CC(=O)O)C(=O)N[C@@H](Cc1ccc(O)cc1)C(=O)N[C@@H](Cc1c[nH]cn1)C(=O)N[C@@H](CCCNC(=N)N)C(=O)NCC(=O)N[C@@H](Cc1ccccc1)C(=O)N[C@H](C(=O)N[C@@H](CCC(=O)O)C(=O)N[C@@H](CC(=O)O)C(=O)O)[C@@H](C)O [STX16_TtoA] (H-DDNALYHRGFTED-OH; N-terminus and C-terminus assumed) | > 200 µM | No binding |  | 
